Results on 16 molecules are retold here after patent publication US9586952B2, “Polycyclic estrogen receptor modulators and uses thereof” (SERAGON PHARMACEUTICALS, INC., priority 2013, dated 2017).

One may read the IC50 as the point on the concentration scale where inhibition reaches its midpoint. A higher IC50 goes with a need for much substance.

One experiment has as its system MCF-7 cells. The experiment can be described thus: MCF7 Viability Assay (Breast Cancer Cell Viability Assay). The class given is cell-based. The conditions noted are these: 5 days' compound exposure, CellTiter-Glo; for IC50: Homo sapiens, MCF7, 120 h. On the procedure:
MCF-7 cells were adjusted to a concentration of 20,000 cells per mL in RPMI containing 10% FBS and 20 mM HEPES. 16 microliters of the cell suspension (320 cells) was added to each well of a 384 well plate, and the cells were incubated overnight to allow the cells to adhere. The following day an eleven point, serial semilog dilution of each compound was added to the cells in 16 μL at a final concentration ranging from 0.3-0.000003 μM. After 5 days' compound exposure, 16 μL of CellTiter-GLo (Promega, Madison Wis.) was added to the cells, and the relative luminescence units (RLUs) of each well were determined. CellTiter-Glo added to 32 μL of medium without cells was used to obtain a background value. The Percent viability of each sample was determined as follows: (RLU sample-RLU background/RLU untreated cells-RLU background)×100=% viability.

In a further experiment the target is T1, ER-α (Homo sapiens, UniProt P03372).
T1 construct: endogenous in cells; host or cells: MCF-7
T1 sequence (P03372 1-595): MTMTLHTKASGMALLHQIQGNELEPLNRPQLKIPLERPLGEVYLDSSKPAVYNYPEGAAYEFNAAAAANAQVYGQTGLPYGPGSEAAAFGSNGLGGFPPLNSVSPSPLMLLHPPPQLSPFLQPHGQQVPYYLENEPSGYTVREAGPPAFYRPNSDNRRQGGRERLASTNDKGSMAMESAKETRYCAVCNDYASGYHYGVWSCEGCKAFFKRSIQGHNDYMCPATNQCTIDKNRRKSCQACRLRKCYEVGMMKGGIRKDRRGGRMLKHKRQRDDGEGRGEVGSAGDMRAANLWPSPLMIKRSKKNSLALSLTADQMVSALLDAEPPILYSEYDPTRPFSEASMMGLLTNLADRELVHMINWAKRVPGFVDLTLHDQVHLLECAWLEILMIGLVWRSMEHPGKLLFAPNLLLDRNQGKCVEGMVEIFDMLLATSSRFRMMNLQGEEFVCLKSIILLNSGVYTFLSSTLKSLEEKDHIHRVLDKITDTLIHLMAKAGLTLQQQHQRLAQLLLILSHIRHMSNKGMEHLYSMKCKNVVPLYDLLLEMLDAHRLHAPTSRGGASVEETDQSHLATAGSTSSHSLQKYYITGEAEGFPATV
The experiment can be described thus: Breast Cancer Cell ER-α In Cell Western Assay (SP1). Type of experiment: cell-based. The conditions noted are these: MCF-7 cells, 4 or 24 hr post compound addition, SP1 antibody; for Emax: MCF7, read-out: ER-α In Cell Western Assay (SP1) Max Response; for DC50: read-out: ER-α In Cell Western Assay (SP1) IC50. Here is the method: MCF-7 cells were adjusted to a concentration of 200,000 cells per mL in RPMI containing 10% charcoal-stripped FBS and 20 mM HEPES. 16 microliters of the cell suspension (3200 cells) was added to each well of a poly-D-lysine 384 well plate, and the cells were incubated overnight to allow the cells to adhere. The following day an eleven point, serial semilog dilution of each compound was added to the cells in 16 μL at a final concentration ranging from 0.3-0.000003 μM. At 4 or 24 hr post compound addition, the cells were fixed (10% formalin in PBS) for 20 minutes. Cells were permeablized in PBS 0.1% Triton and blocked with LICOR blocking buffer (50 μl/well, 90′). The wells were then incubated overnight at 4° C. with SP1 rabbit monoclonal Ab (Thermo Scientific) diluted 1:1000 in LICOR blocking buffer/0.1% Tween-20. Wells which were treated with blocking buffer with Tween but no antibody were used as a background control. Wells were washed with 0.1% Tween-20/PBS and then incubated in goat anti-rabbit IRDye™ 800 CW (LICOR Inc.; 1:10000) and DRAQ5 DNA dye (1:2000 for 2 mM stock) diluted in LICOR blocking buffer containing 0.1% Tween-20 and 0.01% SDS for 60 minutes. Cells were washed (50 μl/well, 5′ each) in 0.1% Tween-20/PBS. Plates were scanned on a LICOR Odyssey infrared imaging system. Integrated intensities in the 800 nm channel and 700 nm channel were measured to determine levels of ER and DNA respectively. Percent ER levels were determined as follows: (Integrated intensity 800 nm sample/integrated intensity 700 nm sample)/(Integrated intensity 800 nm untreated cells/integrated intensity 700 nm untreated cells)×100=% ER levels.

For `CC/C(=C(/c1ccc(/C=C/C(=O)O)cc1)c1ccc(-n2ccnc2)cc1)c1ccccc1` [Example 17, (E)-3-(4-((E)-1-(4-(1H-Imidazol-1-yl)phenyl)-2-phenylbut-1-en-1-yl)phenyl)acrylic acid], in the experiment on MCF-7 cells, the “MCF7 Viability Assay Max Response” value is reported as “++ (++ = a single % value ≧ 40%)” and the IC50 is above 100 nM. On ER-α, the Emax is at least 40% and the DC50 was above 100 nM.

For `CC/C(=C(/c1ccc(/C=C/C(=O)O)cc1)c1ccc(-c2cnco2)cc1)c1ccccc1` [Example 18, (E)-3-(4-((E)-1-(4-(Oxazol-5-yl)phenyl)-2-phenylbut-1-en-1-yl)phenyl)acrylic acid], in the experiment on MCF-7 cells, the “MCF7 Viability Assay Max Response” value was “++ (++ = a single % value ≧ 40%)” and the IC50 was at most 100 nM. In addition, on ER-α, the Emax is at least 40% and the DC50 was at most 100 nM.

In the case of `CC/C(=C(/c1ccc(/C=C/C(=O)O)cc1)c1ccc(-c2cnn(C)c2)cc1)c1ccccc1` [Example 19, (E)-3-(4-((E)-1-(4-(1-Methyl-1H-pyrazol-4-yl)phenyl)-2-phenylbut-1-en-1-yl)phenyl)acrylic acid], in the experiment with MCF-7 cells, the “MCF7 Viability Assay Max Response” value was “++ (++ = a single % value ≧ 40%)” and the IC50 is at most 100 nM. Besides, on ER-α, the Emax is at least 40% and the DC50 is at most 100 nM.

On to `CC/C(=C(/c1ccc(/C=C/C(=O)O)cc1)c1ccc(-c2cncs2)cc1F)c1ccccc1` [Example 20, (E)-3-(4-((E)-1-(2-Fluoro-4-(thiazol-5-yl)phenyl)-2-phenylbut-1-en-1-yl)phenyl)acrylic acid], for which, in the experiment with MCF-7 cells, the “MCF7 Viability Assay Max Response” value is recorded as “++ (++ = a single % value ≧ 40%)” and the IC50 was at most 100 nM. For the same molecule, on ER-α, the Emax was at least 40% and the DC50 is at most 100 nM.

Regarding `CC/C(=C(/c1ccc(/C=C/C(=O)O)cc1)c1ccc(-c2cncs2)c(F)c1)c1ccccc1` [Example 21, (E)-3-(4-((E)-1-(3-Fluoro-4-(thiazol-5-yl)phenyl)-2-phenylbut-1-en-1-yl)phenyl)acrylic acid], in the experiment on MCF-7 cells, the “MCF7 Viability Assay Max Response” value is “++ (++ = a single % value ≧ 40%)” and the half-inhibitory concentration (IC50) was at most 100 nM. At ER-α, the Emax is at least 40% and the DC50 was at most 100 nM.

As to `CC/C(=C(/c1ccc(/C=C/C(=O)O)cc1)c1ccc(-c2cn[nH]c2)cc1)c1ccccc1` [Example 22, (E)-3-(4-((E)-1-(4-(1H-Pyrazol-4-yl)phenyl)-2-phenylbut-1-en-1-yl)phenyl)acrylic acid], in the experiment on MCF-7 cells, the “MCF7 Viability Assay Max Response” value was “++ (++ = a single % value ≧ 40%)” and the 50% inhibitory concentration (IC50) was at most 100 nM. Besides, at ER-α, the Emax was at least 40% and the DC50 was at most 100 nM.

For the molecule `CC/C(=C(/c1ccc(/C=C/C(=O)O)cc1)c1ccc(N2CCN(C)CC2)cc1)c1ccccc1` [Example 23, (E)-3-(4-((E)-1-(4-(4-Methylpiperazin-1-yl)phenyl)-2-phenylbut-1-en-1-yl)phenyl)acrylic acid], in the experiment on MCF-7 cells, the “MCF7 Viability Assay Max Response” value was “++ (++ = a single % value ≧ 40%)” and the IC50 was above 100 nM. At ER-α, the Emax is at least 40% and the DC50 is at most 100 nM.

Consider `CC/C(=C(/c1ccc(/C=C/C(=O)O)cc1)c1ccc(N2CCCCC2)cc1)c1ccccc1` [Example 24, (E)-3-(4-((E)-2-Phenyl-1-(4-(piperidin-1-yl)phenyl)but-1-en-1-yl)phenyl)acrylic acid], for which, in the experiment on MCF-7 cells, the “MCF7 Viability Assay Max Response” value is reported as “++ (++ = a single % value ≧ 40%)” and the 50% inhibitory concentration (IC50) is above 100 nM. Moreover, on ER-α, the Emax was at least 40% and the DC50 is above 100 nM.

With `O=C(O)/C=C/c1ccc(/C(=C(\c2ccccc2)C2CCC2)c2ccc(-c3cncs3)cn2)cc1` [Example 25, (E)-3-(4-((E)-2-Cyclobutyl-2-phenyl-1-(5-(thiazol-5-yl)pyridin-2-yl)vinyl)phenyl)acrylic acid], in the experiment with MCF-7 cells, the “MCF7 Viability Assay Max Response” value was “++ (++ = a single % value ≧ 40%)” and the half-maximal inhibitory concentration (IC50) was above 100 nM. For the same molecule, on ER-α, the Emax is at least 40% and the DC50 is above 100 nM.

Consider `O=C(O)/C=C/c1ccc(/C(=C(\c2ccccc2)C2CCC2)c2cccc(-c3cn[nH]c3)c2)cc1` [Example 26, (E)-3-(4-((E)-1-(3-(1H-Pyrazol-4-yl)phenyl)-2-cyclobutyl-2-phenylvinyl)phenyl)acrylic acid], for which, in the experiment on MCF-7 cells, the “MCF7 Viability Assay Max Response” value is on record as “+ (+ = a single % value < 40%)” and the half-inhibitory concentration (IC50) is above 100 nM. At ER-α, the Emax was at least 40% and the DC50 is above 100 nM.

As to `O=C(O)/C=C/c1ccc(/C(=C(\c2ccccc2)C2CCC2)c2ccc(-c3ccon3)cc2)cc1` [Example 27, (E)-3-(4-((E)-2-Cyclobutyl-1-(4-(isoxazol-3-yl)phenyl)-2-phenylvinyl)phenyl)acrylic acid], in the experiment on MCF-7 cells, the “MCF7 Viability Assay Max Response” value is “++ (++ = a single % value ≧ 40%)” and the IC50 was at most 100 nM. At ER-α, the Emax is at least 40% and the DC50 was at most 100 nM.

Consider `CC/C(=C(/c1ccc(/C=C/C(=O)O)cc1)c1ccc(-c2cncs2)cc1)c1ccncc1Cl` [Example 28, (E)-3-(4-((E)-2-(3-Chloropyridin-4-yl)-1-(4-(thiazol-5-yl)phenyl)but-1-en-1-yl)phenyl)acrylic acid], for which, in the experiment with MCF-7 cells, the “MCF7 Viability Assay Max Response” value is “++ (++ = a single % value ≧ 40%)” and the IC50 was at most 100 nM. Moreover, at ER-α, the Emax was at least 40% and the DC50 is at most 100 nM.

For `CC/C(=C(/c1ccc(/C=C/C(=O)O)cc1)c1ccc(-c2cncs2)cc1)c1ccccc1Cl` [Example 29, (E)-3-(4-((E)-2-(2-Chlorophenyl)-1-(4-(thiazol-5-yl)phenyl)but-1-en-1-yl)phenyl)acrylic acid], in the experiment with MCF-7 cells, the “MCF7 Viability Assay Max Response” value is reported as “++ (++ = a single % value ≧ 40%)” and the IC50 was at most 100 nM. Moreover, at ER-α, the Emax is at least 40% and the DC50 is at most 100 nM.

As for `CC/C(=C(/c1ccc(/C=C/C(=O)O)cc1)c1ccc(-c2cncs2)cc1)c1cccc(OC)c1` [Example 30, (E)-3-(4-((E)-2-(3-Methoxyphenyl)-1-(4-(thiazol-5-yl)phenyl)but-1-en-1-yl)phenyl)acrylic acid], in the experiment on MCF-7 cells, the “MCF7 Viability Assay Max Response” value is “++ (++ = a single % value ≧ 40%)” and the IC50 is at most 100 nM. Besides, at ER-α, the Emax is at least 40% and the DC50 is at most 100 nM.

Turning to `CC/C(=C(/c1ccc(/C=C/C(=O)O)cc1)c1ccc(-c2cncs2)cc1)c1ccc2occc2c1` [Example 31, (E)-3-(4-((E)-2-(Benzofuran-5-yl)-1-(4-(thiazol-5-yl)phenyl)but-1-en-1-yl)phenyl)acrylic acid], in the experiment with MCF-7 cells, the “MCF7 Viability Assay Max Response” value is “++ (++ = a single % value ≧ 40%)” and the IC50 is at most 100 nM. For the same molecule, on ER-α, the Emax is at least 40% and the DC50 is at most 100 nM.

Take `CC/C(=C(/c1ccc(/C=C/C(=O)O)cc1)c1ccc(-c2cncs2)cc1)c1cscc1C` [Example 32, (E)-3-(4-((E)-2-(4-Methylthiophen-3-yl)-1-(4-(thiazol-5-yl)phenyl)but-1-en-1-yl)phenyl)acrylic acid]: in the experiment on MCF-7 cells, the “MCF7 Viability Assay Max Response” value is reported as “++ (++ = a single % value ≧ 40%)” and the half-inhibitory concentration (IC50) was at most 100 nM. Besides, on ER-α, the Emax was at least 40% and the DC50 was at most 100 nM.
